# In patent US20150196033A1, “PESTICIDAL COMPOSITIONS AND PROCESSES RELATED THERETO” (priority 2012, published 2015):
# Experiments:
# Type in all cases: in vivo
# [1] = tested on: Beet Armyworm (BAW) (Spodoptera exigua); test: Bioassay on Beet Armyworm (BAW), 128-well diet tray assay; conditions: 50 μg/cm2 on artificial diet, second instar larvae, five to seven days; for mortality at 50 µg/cm2: Spodoptera exigua, 168 h, read-out: Rating BAW (% Control (or Mortality))
# How it was run: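 Spodoptera exigua larvae on diet trays held 5–7 days at 25 °C, 14:10 light-dark. Percent mortality scored per well and averaged over eight wells.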
# [2] = tested on: Corn Earworm (CEW) (Helicoverpa zea); test: Bioassay on Corn Earworm (CEW), 128-well diet tray assay; conditions: second instar larvae, five to seven days; for mortality at 50 µg/cm2 / mortality at 0.5 µg/cm2: Helicoverpa zea, 168 h; for mortality at 50 µg/cm2: read-out: Rating CEW (% Control (or Mortality)); for mortality at 0.5 µg/cm2: 0.5 μg/cm2 on artificial diet, read-out: Rating CEW (% Control (or Mortality)), *Tested at 0.5 μg/cm2
# How it was run: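 Helicoverpa zea larvae in 128-well diet trays, held at 25 °C, 14:10 light-dark for five to seven days. Percent mortality scored per well and averaged over eight wells.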
# [3] = tested on: Green Peach Aphid (GPA) (Myzus persicae); test: Bioassay on Green Peach Aphid (GPA), foliar spray on cabbage seedlings; conditions: 200 ppm foliar spray on cabbage seedlings, graded after three days, Abbott corrected % control; for mortality at 200 ppm: Myzus persicae, 72 h, read-out: Rating GPA (% Control (or Mortality))
# Description: Certain molecules disclosed in this document were tested against GPA using procedures described in the following example. In the reporting of the results, the “GPA Rating Table” was used (See Table Section).
# Cabbage seedlings grown in 3-inch pots, with 2-3 small (3-5 cm) true leaves, were used as test substrate. The seedlings were infested with 20-50 GPA (wingless adult and nymph stages) one day prior to chemical application. Four pots with individual seedlings were used for each treatment. Test compounds (2 mg) were dissolved in 2 mL of acetone/MeOH (1:1) solvent, forming stock solutions of 1000 ppm test compound. The stock solutions were diluted 5× with 0.025% Tween 20 in H2O to obtain the solution at 200 ppm test compound. A hand-held aspirator-type sprayer was used for spraying a solution to both sides of […] leaves until runoff. Reference plants (solvent check) were sprayed with the diluent only containing 20% by volume of acetone/MeOH (1:1) solvent. Treated plants were held in a holding room for three days at approximately 25° C. and ambient relative humidity (RH) prior to grading. Evaluation was conducted by counting the number of live aphids per plant under a microscope. Percent Control was measured by using Abbott's correction formula (W.S. Abbott, “A Method of Computing the Effectiveness of an Insecticide” J. Econ. Entomol. 18 (1925), pp. 265-267) as follows.
# Corrected % Control=100*(X−Y)/X • where • X=No. of live aphids on solvent check plants and • Y=No. of live aphids on treated plants
# [4] = tested on: Yellow Fever Mosquito (YFM) (Aedes aegypti); conditions: about 1 day-old larvae, scored on mortality after 3 days
# Description: Certain molecules disclosed in this document were tested against YFM using procedures described in the following paragraph. In the reporting of the results, the “YFM Rating Table” was used (See Table Section).
# Master plates containing 400 μg of a molecule dissolved in 100 μL of dimethyl sulfoxide (DMSO) (equivalent to a 4000 ppm solution) are used. A master plate of assembled molecules contains 15 μL per well. To this plate, 135 μL of a 90:10 water:acetone mixture is added to each well. A robot (Biomek® NXP Laboratory Automation Workstation) is programmed to dispense 15 μL aspirations from the master plate into an empty 96-well shallow plate (“daughter” plate). There are 6 reps (“daughter” plates) created per master. The created daughter plates are then immediately infested with YFM larvae.
# The day before plates are to be treated, mosquito eggs are placed in Millipore water containing liver powder to begin hatching (4 g. into 400 ml). After the daughter plates are created using the robot, they are infested with 220 μL of the liver powder/larval mosquito mixture (about 1 day-old larvae). After plates are infested with mosquito larvae, a non-evaporative lid is used to cover the plate to reduce drying. Plates are held at room temperature for 3 days prior to grading. After 3 days, each well is observed and scored based on mortality.
Compound,mortality at 50 µg/cm2 [1],mortality at 50 µg/cm2 ([2]; 50 μg/cm2 on artificial diet),mortality at 200 ppm [3],Rating YFM (% Control (or Mortality)) [4],mortality at 0.5 µg/cm2 [2],Rating BAW (% Control (or Mortality)) [1],Rating CEW (% Control (or Mortality)) ([2]; 50 μg/cm2 on artificial diet),Rating GPA (% Control (or Mortality)) [3]
"Cc1cccc(C)c1N/C(=N/C(=O)Nc1ccc(-c2ncn(-c3ccc(C(F)(F)F)cc3)n2)cc1)SCOC(=O)C(C)C [Molecule A3, (E)-(N′-(2,6-Dimethylphenyl)-N-(4-(1-(4-(trifluoromethyl)phenyl)-1H-1,2,4-triazol-3-yl)phenylcarbamoyl)carbamimidoylthio) methyl isobutyrate]",50 to 100%,50 to 100%,0%,A (80-100),,,,
"Cc1cccc(C)c1N/C(=N/C(=O)Nc1ccc(-c2ncn(-c3ccc(OC(F)(F)F)cc3)n2)cc1)SCOC(=O)C(C)C [Molecule A4, (E)-(N′-(2,6-Dimethylphenyl)-N-(4-(1-(4-(trifluoromethyoxy)phenyl)-1H-1,2,4-triazol-3-yl)phenylcarbamoyl)carbamimidoylthio)methyl isobutyrate]",50 to 100%,50 to 100%,0 to 80%,A (80-100),,,,
Cc1cccc(C)c1N/C(S)=N/C(=O)Nc1ccc(-c2ncn(-c3ccc(C(F)(F)F)cc3)n2)cc1 [Molecule A12],50 to 100%,50 to 100%,0%,,,,,
"Cc1cccc(C)c1N1C(=O)CS/C1=N\C(=O)Nc1ccc(-c2ncn(-c3ccc(OC(F)(F)F)cc3)n2)cc1 [Molecule A14, (Z)-1-(3-(2,6-dimethylphenyl)-4-oxothiazolidin-2-ylidene)-3-(4-(1-(4-(trifluoromethoxy)phenyl)-1H-1,2,4-triazol-3-yl)phenyl)urea]",50 to 100%,50 to 100%,0 to 80%,A (80-100),,,,
"CCC(C)c1ccccc1N1C(=O)CS/C1=N\C(=O)Nc1ccc(-c2ncn(-c3ccc(OC(F)(F)F)cc3)n2)cc1 (centres unmarked) [Molecule A18, (Z)-1-(3-(2-(sec-butyl)phenyl)-4-oxothiazolidin-2-ylidene)-3-(4-(1-(4-(trifluoromethoxy)phenyl)-1H-1,2,4-triazol-3-yl)phenyl)urea]",50 to 100%,50 to 100%,,A (80-100),,,,
"CC(=O)/C(C(=O)Nc1ccc(-c2ncn(-c3ccc(OC(F)(F)F)cc3)n2)cc1)=C(/S)Nc1ccccc1C(C)C [Molecule A20, (E)-3-hydroxy-2-((2-isopropylphenyl)carbamothioyl)-N-(4-(1-(4-(trifluoromethoxy)phenyl)-1H-1,2,4-triazol-3-yl)phenyl)but-2-enamide]",50 to 100%,50 to 100%,0%,,,,,
"Cc1ccccc1N/C(S)=C/C(=O)Nc1ccc(-c2ncn(-c3ccc(OC(F)(F)F)cc3)n2)cc1 [Molecule A22, 3-thioxo-3-(o-tolylamino)-N-(4-(1-(4-(trifluoromethoxy)phenyl)-1H-1,2,4-triazol-3-yl)phenyl)propanamide]",50 to 100%,50 to 100%,0%,,,,,
"Cc1cccc(C)c1N/C(S)=C(\C#N)C(=O)Nc1ccc(-c2ncn(-c3ccc(OC(F)(F)F)cc3)n2)cc1 [Molecule A28, (Z)-2-Cyano-3-mercapto-3-((2,6-dimethylphenyl)amino)-N-(4-(1-(4-(trifluoromethoxy)phenyl)-1H-1,2,4-triazol-3-yl)phenyl)acrylamide]",0%,50 to 100%,,D (No activity noticed in this bioassay),,,,
"Cc1cccc(C)c1N/C(O)=C/C(=O)Nc1ccc(-c2ncn(-c3ccc(OC(F)(F)F)cc3)n2)cc1 [Molecule A32, (Z)-3-(2,6-dimethylphenylamino)-3-hydroxy-I-(4-(1-(4-(trifluoromethoxy)phenyl)-1H-1,2,4-triazol-3-yl)phenyl)acrylamide]",50 to 100%,50 to 100%,0%,,,,,
"COc1ccc(N/C(O)=C/C(=O)Nc2ccc(-c3ncn(-c4ccc(OC(F)(F)F)cc4)n3)cc2)c(C)c1 [Molecule A33, (Z)-3-hydroxy-3-(4-methoxy-2-methylphenylamino)-N-(4-(1-(4-(trifluoromethoxy)phenyl)-1H-1,2,4-triazol-3-yl)phenyl)acrylamide]",50 to 100%,50 to 100%,0 to 80%,,,,,
"COc1ccc(N/C(O)=C/C(=O)Nc2ccc(-c3ncn(-c4ccc(OC(F)(F)F)cc4)n3)cc2)c(C(C)C)c1 [Molecule A34, (Z)-3-hydroxy-3-(2-isopropyl-4-methoxyphenylamino)-N-(4-(1-(4-(trifluoromethoxy)phenyl)-1H-1,2,4-triazol-3-yl)phenyl)acrylamide]",50 to 100%,50 to 100%,0%,A (80-100),,,,
CCc1ccccc1N1C(=O)CS/C1=N\C(=O)Nc1ccc(-c2ncn(-c3ccc(OC(F)(F)F)cc3)n2)cc1 [Molecule A35],50 to 100%,50 to 100%,0%,A (80-100),,,,
Cc1ccccc1N1C(=O)CS/C1=N\C(=O)Nc1ccc(-c2ncn(-c3ccc(OC(F)(F)F)cc3)n2)cc1 [Molecule A65],50 to 100%,,,A (80-100),50 to 100%,,,
CCCc1ccccc1N1C(=O)CS/C1=N\C(=O)Nc1ccc(-c2ncn(-c3ccc(OC(F)(F)F)cc3)n2)cc1 [Molecule A69],50 to 100%,,,A (80-100),50 to 100%,,,
Cc1ccc(N2C(=O)CS/C2=N\C(=O)Nc2ccc(-c3ncn(-c4ccc(OC(F)(F)F)cc4)n3)cc2)c(Cl)c1 [Molecule A77],50 to 100%,,,B (More than 0-Less than 80),50 to 100%,,,
Cc1ccccc1N/C(S)=N/C(=O)Nc1ccc(-c2ncn(-c3ccc(OC(F)(F)F)cc3)n2)cc1 [Molecule A80],50 to 100%,50 to 100%,,B (More than 0-Less than 80),,,,
CC(C)c1cccc(Cl)c1N1C(=O)CS/C1=N\C(=O)Nc1ccc(-c2ncn(-c3ccc(OC(F)(F)F)cc3)n2)cc1 [Molecule A85],50 to 100%,,,A (80-100),50 to 100%,,,
Cc1cc(-c2ncn(-c3ccc(OC(F)(F)F)cc3)n2)ccc1NC(=O)/N=C(\S)Nc1ccccc1C(C)C [Molecule A122],50 to 100%,,,A (80-100),50 to 100%,,,
"Cc1cc(-c2ncn(-c3ccc(OC(F)(F)F)cc3)n2)ccc1NC(=O)/N=C1\SCC(=O)N1c1ccccc1C(C)C [Molecule A123, (Z)-1-(3-(2-isopropylphenyl)-4-oxothiazolidin-2-ylidene)-3-(2-methyl-4-(1-(4-(trifluoromethoxy)phenyl)-1H-1,2,4-triazol-3-yl)phenyl)urea]",50 to 100%,,,A (80-100),50 to 100%,,,
"(E)-((N′-(4-Methoxy-2,6-dimethylphenyl)-N-((4-(1-(4-(trifluoromethyl)phenyl)-1H-1,2,4-triazol-3-yl)phenyl)carbamoyl) carbamimidoyl)thio)methyl 2-(((benzyloxy)carbonyl)amino)acetate [Molecule A9]",,,,,,A (50-100),A (50-100),B (More than 0-Less than 80)
